# In patent US11738065B2, “Polypeptides and analogues thereof for use in the treatment of diabetes and bone disorders” (UNIVERSITY OF ULSTER, priority 2015, dated 2023):
# Legend:
# Assay type in all cases: in vivo
# high fat fed mice [1] = test: Glucose tolerance test after 21 days treatment
# Protocol: Twice daily (09:30 and 17:30 h) i.p. injections of saline vehicle (0.9% w/v NaCl), polypeptides (at 25 nmol/kg bw) were administered for 21 days in high fat mice. Energy intake and body weight were monitored daily, and non-fasting blood glucose and plasma insulin concentrations were assessed at 3 day intervals. On day 21, a non-fasted 24 h glucose profile was conducted. At the end of the treatment period, i.p. glucose tolerance (18 mmol/kg bw), biological response to GIP (18 mmol/kg glucose in combination with native GIP (25 nmol/kg); i.p.) and insulin sensitivity (15 U/kg bw; i.p.) tests were performed. HOMA-IR was determined using the equation HOMA-IR=fasting glucose (mmol/l)×fasting insulin (mU/l)/22.5. All test solutions were administered in a final volume of 5 ml/kg body weight, at 10:00 h without previous 09:30 h peptide injection. Terminal analysis included measurement of total body fat and lean mass by DEXA scanning (Piximus Densitometer, Inside Outside Sales, Madison Wis., USA) and extraction of pancreatic tissue for analysis as detailed below. Immunohistochemistry Pancreatic tissue was excised, divided longitudinally and either immediately snap frozen for subsequent extraction of insulin using acid ethanol extraction (5 ml/g) as described by Irwin et al., 2015 (Diabetes. 2015 August; 64(8):2996-3009), or processed for immunohistochemical examination. Briefly, pancreatic tissues were fixed in 4% parafolmaldehyde at 4° C. for 48 h. Pancreata were then embedded in paraffin wax and processed using an automated tissue processor (Leica TP1020, Leica Microsystems, Nussloch, Germany). Immunohistochemistry was performed as described by Vasu et al., 2014 (PLoS One. 2014 Jun. 26; 9(6):e101005). Succinctly, tissue sections were deparaffinised, rehydrated and probed with primary antibodies: mouse anti-insulin antibody (1:500; Abcam, ab6995) or guinea-pig anti-glucagon antibody (PCA2/4, 1:400; raised in-house). The sections were then incubated with secondary antibody, Alexa Fluor 488 goat anti-guinea pig IgG (1:400) or Alexa Fluor 594 goat anti-mouse IgG (1:400); respectively. […] Islet parameters were analysed using Cell^F image analysis software (Olympus Soft Imaging Solutions, GmbH).
# Tests were conducted after twice daily treatment with saline vehicle (0.9% (w/v) NaCl), (DAla^2)GIP and (DAla^2)GIP/xenin-8-Gln (each at 25 nmol/kg bw) for 21 days. For glucose tolerance test, blood glucose and plasma insulin concentrations were measured before and 15, 30, 60 and 105 min after i.p injection of glucose (18 mmol/kg bw). For metabolic response to GIP, blood glucose and plasma insulin concentrations were measured before and 15, 30, 60 and 105 min after i.p injection of glucose (18 mmol/kg bw) in combination with GIP (25 nmol/kg bw). […]
# high fat fed mice [2] = test: Pancreatic insulin content and islet histology after 21 days treatment
# Protocol: (§1) On day 21, a non-fasted 24 h glucose profile was conducted. […] HOMA-IR was determined using the equation HOMA-IR=fasting glucose (mmol/l)×fasting insulin (mU/l)/22.5. […] Terminal analysis included measurement of total body fat and lean mass by DEXA scanning (Piximus Densitometer, Inside Outside Sales, Madison Wis., USA) and extraction of pancreatic tissue for analysis as detailed below. […] Briefly, pancreatic tissues were fixed in 4% parafolmaldehyde at 4° C. for 48 h. Pancreata were then embedded in paraffin wax and processed using an automated tissue processor (Leica TP1020, Leica Microsystems, Nussloch, Germany). Immunohistochemistry was performed as described by Vasu et al., 2014 (PLoS One. 2014 Jun. 26; 9(6):e101005). […] Abcam, ab6995) or guinea-pig anti-glucagon antibody (PCA2/4, 1:400; raised in-house). […] The slides were viewed under a FITC (488 nm) or TRITC filter (594 nm) using a fluorescent microscope (Olympus system microscope, model BX51) and photographed using a DP70 camera adapter system. Islet parameters were analysed using Cell^F image analysis software (Olympus Soft Imaging Solutions, GmbH). Blood samples were collected from the cut tip on the tail vein of conscious mice into chilled fluoride/heparin glucose micro-centrifuge tubes (Sarstedt, Numbrecht, Germany) at the time points indicated in the Drawings. Blood glucose was measured directly using a hand-held Ascencia Contour blood glucose meter (Bayer Healthcare, Newbury, Berkshire, UK).
# high fat fed mice [3] = test: Sub chronic 21 day twice daily study in high fat fed mice (energy intake, body weight, body composition, glucose, insulin); settings: 25 nmol/kg twice daily
# Protocol: as §1, with “All animal experiments were carried out in accordance with the UK Animals (Scientific Procedures) Act 1986. […] On” for “On”, “Germany).” for “Germany). Immunohistochemistry was performed as described by Vasu et al., 2014 (PLoS One. 2014 Jun. 26; 9(6):e101005).”
# [4] = 0-105 min, glucose 18 mmol/kg i.p., 18 h fasted, after 21 days 25 nmol/kg twice daily, mean ± SEM
structure (smiles),measurement,setting,value
"CC[C@H](C)[C@H](NC(=O)[C@H](CO)NC(=O)[C@H](Cc1ccc(O)cc1)NC(=O)[C@H](CC(=O)O)NC(=O)[C@H](CO)NC(=O)[C@@H](NC(=O)[C@H](Cc1ccccc1)NC(=O)[C@@H](NC(=O)CNC(=O)[C@H](CCC(=O)O)NC(=O)[C@@H](C)NC(=O)[C@@H](N)Cc1ccc(O)cc1)[C@@H](C)O)[C@@H](C)CC)C(=O)N[C@@H](C)C(=O)N[C@@H](CCSC)C(=O)N[C@@H](CC(=O)O)C(=O)N[C@@H](CCCCN)C(=O)N[C@H](C(=O)N[C@@H](Cc1c[nH]cn1)C(=O)N[C@@H](CCC(N)=O)C(=O)N[C@@H](CCC(N)=O)C(=O)N[C@@H](CC(=O)O)C(=O)N[C@@H](Cc1ccccc1)C(=O)N[C@H](C(=O)N[C@@H](CC(N)=O)C(=O)N[C@@H](Cc1c[nH]c2ccccc12)C(=O)N[C@@H](CC(C)C)C(=O)N[C@@H](CC(C)C)C(=O)N[C@@H](C)C(=O)N[C@@H](CCC(N)=O)C(=O)N[C@@H](CCCCN)C(=O)NCC(=O)N[C@@H](CCCCN)C(=O)N[C@@H](CCCCN)C(=O)N[C@@H](CC(N)=O)C(=O)N[C@@H](CC(=O)O)C(=O)N[C@@H](Cc1c[nH]c2ccccc12)C(=O)N[C@@H](CCCCN)C(=O)N[C@@H](Cc1c[nH]cn1)C(=O)N[C@@H](CC(N)=O)C(=O)N[C@H](C(=O)N[C@H](C(=O)N[C@@H](CCC(N)=O)C(=O)O)[C@@H](C)O)[C@@H](C)CC)C(C)C)[C@@H](C)CC [(DAla2)GIP, TYR-(d)ALA-GLU-GLY-THR-PHE-ILE-SER-ASP-TYR-SER-ILE-ALA-MET-ASP-LYS-ILE-HIS-GLN-GLN-ASP-PHE-VAL-ASN-TRP-LEU-LEU-ALA-GLN-LYS-GLY-LYS-LYS-ASN-ASP-TRP-LYS-HIS-ASN-ILE-THR-GLN]",Glucose tolerance test Blood glucose AUC,high fat fed mice [1]; [4],1714.7 ± 138.6^Δ mmol/l · min
same,Glucose tolerance test Plasma insulin AUC,high fat fed mice [1]; [4],65.4 ± 9.2^Δ ng/ml · min
same,Glucose-stimulated plasma insulin AUC,"high fat fed mice [1]; 21 days treatment, vs high fat controls","reduced, albeit non-significantly"
same,Overall AUC blood glucose following a glucose load,"high fat fed mice [1]; 21 days treatment, vs saline controls",strong tendency to reduce overall AUC blood glucose levels
same,Pancreatic islet area and beta cell area,high fat fed mice [2]; 21 days twice daily 25 nmol/kg,no significant effect
same,Pancreatic alpha cell area,"high fat fed mice [2]; 21 days twice daily 25 nmol/kg, vs high fat controls",decreased (P<0.001)
same,Number of islets per mm2,"high fat fed mice [2]; 21 days, vs all other groups of mice",significantly (P<0.05 to P<0.01) augmented
same,Non-fasting 24 h glucose profile on day 21,high fat fed mice [3],"also reduced, but not to the same extent"
same,Circulating plasma insulin,high fat fed mice [3]; 21 days,tendency for reduced plasma insulin levels
same,Energy intake or body weight,"high fat fed mice [3]; 21 days, vs high fat controls",no significant effect
same,Total body fat and lean mass (DXA),high fat fed mice [3]; after 21 days,unaltered
same,Non-fasting blood glucose vs lean control mice,high fat fed mice [3]; from day 12 onwards,not significantly different from lean control mice
